Source: paper PMC3545969, “Mutagenicity and antimutagenicity of (−)-hinokinin a trypanosomicidal compound measured by Salmonella microsome and comet assays” (BMC Complementary and Alternative Medicine, 2012)
Like-named read-outs stand apart in the source and are kept apart here. Marks after values point to notes of the source that are not given here.

Key:
[1] = system: Salmonella typhimurium TA100
[2] = system: V79 cells; test: Comet assay, genotoxicity in V79 cells; type: cell-based, Chinese hamster; parameters: Class 0 / Class 1 / Class 2 / Class 3: unit not given here; conditions: for Class 0 / Class 1 / Class 2 / Class 3 / Score: 3 h
Protocol: Chinese hamster lung fibroblasts (V79) were kindly supplied by Professor Cólus (Universidade Estadual de Londrina (UEL), Paraná, Brazil). Cells were maintained as monolayers in plastic culture flasks (25 cm^2) in HAM-F10 (Sigma-Aldrich) plus DMEM (Sigma-Aldrich, 1:1) culture medium supplemented with 10%; fetal bovine serum (Nutricell), antibiotics (0.01 mg mL^−1 streptomycin and 0.005 mg mL^−1 penicillin; Sigma-Aldrich) and 2.38 mg mL^−1 Hepes (Sigma-Aldrich), at 37°C in a BOD-type chamber. Under these conditions, the average cell cycle time was 12 h.
HK was first dissolved in a mixture of methanol (100 μL) and distilled water (900 μL). The final concentration of methanol in the culture was 0.1%;. The choice of concentrations was based on the results of previous experiments with HK [12]. In the experiments, 3 × 10^5 cells (V79) were seeded into tissue-culture flasks, incubated for two cycles (24 h) in complete HAM-F10/DMEM medium, washed with phosphate buffer saline (PBS), and then subjected to one of the following treatments, in serum-free medium, for 3 h. To assess genotoxicity, the cells were treated with each concentration of HK alone, while for antigenotoxicity, they were treated with the mutagen DXR (0.3 μM) in combination with each HK concentration. Positive (DXR) and negative controls were also included in the test. At the end of the treatment, the cells were washed with ice-cold PBS and trypsinized with 200 μL trypsin. After 3 min, the cells were gently resuspended in complete medium and 20 μL of the cell suspension was immediately used for the test.
The procedures described by Singh et al. were adopted, with minor modifications, as described in detail by Speit and Hartmann and reviewed by Burlinson et al.. Briefly, a microscope slide was covered with a base layer of 1.5%; normal-melting agarose (Invitrogen) and 20 μL of the test cells suspended in 120 μL 0.5%; low-melting agarose (Invitrogen) at 37°C was then spread over the base layer. A coverslip was added and the agarose allowed to solidify at 4°C for 15 min. Next, the coverslip was gently removed and the slides were immersed in freshly prepared lysing solution consisting of 89 mL stock solution (2.5 M NaCl, 100 mM EDTA, 10 mM Tris, pH 10.0, and 1%; sodium lauryl sarcosine), 10 mL DMSO and 1 mL Triton X-100, pH 10.0, at 4°C, for at least 20 h, protected from light. At the end of this period, the slides were transferred to an electrophoresis chamber containing a high pH (>13.0) buffer (300 mM NaOH, 1 mM EDTA) and incubated at 4°C for 20 min to allow the DNA to unwind. A current of 25 V (1.0 V cm^−1, 300 mA) was applied for 20 min. The slides were then submerged in a neutralization buffer (0.4 M Tris - HCl, pH 7.5) for 15 min, dried at room temperature and fixed in 100%; ethanol for 10 min.
The slides were stained with 100 μL ethidium bromide (20 μg ml^−1) and covered with a coverslip. All the slides in the experiment were coded before analysis. The stained nucleoids were immediately evaluated at 1000x magnification under a Nikon fluorescence microscope fitted with a 515–560 nm excitation filter and a 590 nm barrier filter.
For each treatment, the extent and distribution of DNA damage indicated by the comet assay were evaluated by examining 100 randomly selected and non-overlapping cells on the slides (i.e. 300 nucleoids per treatment). For each slide, the cells were visually scored and allocated to one of four classes (0, 1, 2 and 3), according to tail size, as follows: class 0, undamaged, no tail; class 1, a short tail whose length was smaller than the diameter of the comet head (nucleus); class 2, tail length between 1 and 2 times the diameter of the head; and class 3, maximally damaged: a long tail measuring more than twice the diameter of the head. The few comets containing no head and those with almost all DNA in the tail, or with a very wide tail, were excluded from the analysis since they may arise from dead cells. […]

[3] = system: Salmonella typhimurium TA98; conditions: TA 98, + S9, positive control 2-anthramine 1.25 μg/plate
[4] = system: Salmonella typhimurium TA100; remark: listed apart in the source
[5] = system: Salmonella typhimurium TA97a; conditions: TA 97a, + S9, positive control 2-anthramine 1.25 μg/plate
[6] = system: Salmonella typhimurium TA97a; conditions: TA 97a, + S9, mutagen alone (Ctrol +), 2-AA 1.25 μg/plate
[7] = DXR 0.3 μM alone (positive control)

With aflatoxin B1 [AFB1, reference compound] the “Number of revertants(M ± SD)/ plate” value [1] was 1607 + 79 revertants/plate.

With `COc1cccc2c1C(=O)c1c(O)c3c(c(O)c1C2=O)C[C@@](O)(C(=O)CO)C[C@@H]3O[C@H]1C[C@H](N)[C@H](O)[C@H](C)O1` [DXR, doxorubicin, reference compound] the “Class 0” value ([2]; DXR 0.3 μM + MeOH 0.1%) was 46.3 ± 6.8, the “Class 1” value ([2]; DXR 0.3 μM + MeOH 0.1%) was 30.0 ± 6.0 and the “Class 2” value ([2]; DXR 0.3 μM + MeOH 0.1%) was 16.3 ± 5.6. For the same molecule, the “Class 3” value ([2]; DXR 0.3 μM + MeOH 0.1%) was 6.6 ± 3.0, the Score ([2]; DXR 0.3 μM + MeOH 0.1%) was 83.3 ± 14.5^a and the “Class 0” value [2, 7] was 41.0 ± 12.0. For the same molecule, the “Class 1” value [2, 7] was 36.0 ± 12.7, the “Class 2” value [2, 7] was 18.0 ± 2.0 and the “Class 3” value [2, 7] was 4.0 ± 2.5. For the same molecule, the Score [2, 7] was 86.0 ± 11.5^a and the “rate of DNA damage relative to the negative control” value ([2]; DXR 0.3 μM, V79 cells) was “significant increase in the rate of DNA damage”.

`Nc1ccc2cc3ccccc3cc2c1` [2-AA, 2-aminoanthracene, reference compound] was tested, and the “Number of revertants(M ± SD)/ plate” value [3] was 1567 ± 115^e revertants/plate, the “Number of revertants(M ± SD)/ plate” value ([4]; TA 100, + S9, positive control 2-anthramine 1.25 μg/plate) was 1456 ± 78^e revertants/plate and the “Number of revertants(M ± SD)/ plate” value [5] was 1789 ± 89^e revertants/plate. For the same molecule, the “Number of revertants(M ± SD)/ plate” value [6] was 1083 + 67 revertants/plate.

With `[N-]=[N+]=[N-].[Na+]` [SA, sodium azide, reference compound] the “Number of revertants(M ± SD)/ plate” value [4] was 1582 ± 98^c revertants/plate and the “Number of revertants(M ± SD)/ plate” value [1] was 1219 + 46 revertants/plate.
